The results in this text go back to patent US20140121103A1, “COMPOSITIONS COMPRISING FUNGICIDAL SUBSTITUTED DITHIINES AND FURTHER ACTIVES” (BASF SE, priority 2011, published 2014).

What all share (type): cell-based
One assay concerns Pyricularia oryzae. To be noted: active alone.
The next assay has as its system Septoria tritici. Kind of assay: Activity against leaf blotch on wheat caused by Septoria tritici (microtiter plate). As to conditions: active alone.
The next assay deals with Leptosphaeria nodorum. Kind of assay: Activity against wheat leaf spots caused by Leptosphaeria nodorum (microtiter plate).
A further assay relates to Alternaria solani. Kind of assay: Activity against early blight caused by Alternaria solani (microtiter plate). As to conditions: active alone.
In the next assay the test system is Botrytis cinerea. Kind of assay: Activity against the grey mold Botrytis cinerea in the microtiterplate test. As to conditions: active alone.
Where [1] appears, read: Parastagonospora nodorum, 168 h, active alone, read-out: Observed efficacy.

Structures are written as SMILES. Read-outs that look alike come from different tables or passages of the source.

`CCCCCCCCc1c(CC)nc2ncnn2c1N` [Ametoctradin]: the Observed efficacy stood at 12% with Pyricularia oryzae (4 ppm); 13% in the assay on Septoria tritici (4 ppm); 31% in the assay on Leptosphaeria nodorum (active alone, 4 ppm); 4% in the assay on Alternaria solani (4 ppm).
For the compound `CO/C=C(/C(=O)OC)c1ccccc1Oc1cc(Oc2ccccc2C#N)ncn1` [Azoxystrobin], the Observed efficacy in the assay with Septoria tritici (0.25 ppm) worked out at 65%.
Take `CC(C)[C@H](NC(=O)O)C(=O)N[C@H](C)c1nc2ccc(F)cc2s1` [Benthiavalicarb]: the Observed efficacy in the assay with Pyricularia oryzae (4 ppm) worked out at 3%; in the assay on Septoria tritici (4 ppm), 10%; with Leptosphaeria nodorum (active alone, 4 ppm), 27%.
With `O=C(Nc1ccccc1-c1ccc(Cl)cc1)c1cccnc1Cl` [Boscalid], the Observed efficacy in the assay on Pyricularia oryzae (16 ppm) came to 6%. For the same compound, the inhibition of growth at 16 ppm in the assay with Leptosphaeria nodorum (setting [1]) was determined as 25%.
`COC(=O)Nc1nc2ccccc2[nH]1` [Carbendazim]: the Observed efficacy is given as 75% with Botrytis cinerea (0.063 ppm), 0% in the assay with Septoria tritici (0.016 ppm) and 35% in the assay on Alternaria solani (4 ppm).
Turning to `N#Cc1c(Cl)c(Cl)c(Cl)c(C#N)c1Cl` [Chlorothalonil], the Observed efficacy is reported as 58% with Botrytis cinerea (4 ppm) and 17% with Alternaria solani (1 ppm). Also, the inhibition of growth at 1 ppm in the assay with Leptosphaeria nodorum (setting [1]) is 22%.
As to `N#CC1=C(C#N)SC(C#N)=C(C#N)S1` [Compound I.A, 2,3,5,6-tetracyano-[1,4]dithiine], the Observed efficacy was 1% in the assay on Botrytis cinerea (0.063 ppm); 14% in the assay with Botrytis cinerea (4 ppm); 20% with Pyricularia oryzae (4 ppm); 8% in the assay on Septoria tritici (0.016 ppm); 18% in the assay on Septoria tritici (1 ppm); 74% in the assay with Septoria tritici (4 ppm). Moreover, the Observed efficacy in the assay with Alternaria solani (1 ppm) came to 11%; in the assay with Alternaria solani (4 ppm), 46%. In addition, in the assay on Leptosphaeria nodorum (Parastagonospora nodorum, 168 h, read-out: Observed efficacy), the inhibition of growth at 4 ppm amounted to 53%. For the same compound, in the assay on Leptosphaeria nodorum (setting [1]), the inhibition of growth at 1 ppm came to 7%.
Turning to `Cc1ccc(-c2c(Cl)nc(C#N)n2S(=O)(=O)N(C)C)cc1` [Cyazofamid], the figures for the Observed efficacy with Pyricularia oryzae (1 ppm) and with Septoria tritici (1 ppm) were 8% and 2%, respectively. The inhibition of growth at 1 ppm in the assay on Leptosphaeria nodorum (setting [1]) came to 25%.
`CC1COC(Cn2cncn2)(c2ccc(Oc3ccc(Cl)cc3)cc2Cl)O1` (centres unmarked) [Difenoconazol] yielded an Observed efficacy with Pyricularia oryzae (1 ppm) of 27%.
Consider `CC1(C(=O)Nc2ccc(O)c(Cl)c2Cl)CCCCC1` [Fenhexamid], for which the Observed efficacy in the assay on Septoria tritici (16 ppm) turned out to be 28%. Also, the inhibition of growth at 16 ppm in the assay with Leptosphaeria nodorum (setting [1]) was found to be 37%.
As to `Cn1cc(C(=O)Nc2ccccc2-c2cc(F)c(F)c(F)c2)c(C(F)F)n1` [Fluxapyroxad], the Observed efficacy amounted to 7% in the assay on Pyricularia oryzae (0.063 ppm) and 23% with Leptosphaeria nodorum (active alone, 0.063 ppm).
Turning to `CC(C)NC(=O)N1CC(=O)N(c2cc(Cl)cc(Cl)c2)C1=O` [Iprodion], the Observed efficacy with Pyricularia oryzae (4 ppm) is 29%; with Septoria tritici (4 ppm), 0%. For the same compound, the inhibition of growth at 4 ppm in the assay with Leptosphaeria nodorum (Parastagonospora nodorum, 168 h, active alone, 4 ppm, read-out: Observed efficacy) worked out at 54%.
`Cc1ccc(C(C)NC(=O)[C@@H](NC(=O)OC(C)C)C(C)C)cc1` (some centres unmarked) [Iprovalicarb]: the Observed efficacy in the assay on Pyricularia oryzae (4 ppm) was 6%; in the assay on Septoria tritici (4 ppm), 13%.
With `COCC(=O)N(c1c(C)cccc1C)[C@H](C)C(=O)OC` [Metalaxyl-M], the Observed efficacy in the assay on Pyricularia oryzae (4 ppm) was found to be 8%; in the assay on Septoria tritici (4 ppm), 11%; in the assay with Leptosphaeria nodorum (active alone, 4 ppm), 26%.
For the compound `CCCN(CCOc1c(Cl)cc(Cl)cc1Cl)C(=O)n1ccnc1` [Prochloraz], the Observed efficacy with Septoria tritici (0.063 ppm) is 20%.
Regarding `OC(Cc1ccccc1Cl)(Cn1nc[nH]c1=S)C1(Cl)CC1` (centres unmarked) [Prothioconazol], the inhibition of growth at 1 ppm with Leptosphaeria nodorum (setting [1]) turned out to be 52%.
With `COC(=O)N(OC)c1ccccc1COc1ccn(-c2ccc(Cl)cc2)n1` [Pyraclostrobin], the inhibition of growth at 0.25 ppm in the assay with Leptosphaeria nodorum (Parastagonospora nodorum, 168 h, active alone, 0.25 ppm, read-out: Observed efficacy) came to 57%.
In the assay on Pyricularia oryzae (16 ppm), `Cc1cc(C)nc(Nc2ccccc2)n1` [Pyrimethanil] yielded an Observed efficacy of 72%.
In the assay with Septoria tritici (0.25 ppm), `CC(C)(C)C(O)(CCc1ccc(Cl)cc1)Cn1cncn1` (centres unmarked) [Tebuconazol] gave an Observed efficacy of 54%.
